Data reported in PMC9404989, “Design and Evaluation of Short Bovine Lactoferrin-Derived Antimicrobial Peptides against Multidrug-Resistant Enterococcus faecium” (Antibiotics, 2022).
Values joined by “and” are separate entries in the source; they are usually repeats but may differ in a detail not shown here. Identical values can stand only once. No end group written: not given here.

System: E. faecium strain C68 primary metabolites
Test: Targeted LC-MS/MS metabolomics
Assay type: cell-based, Enterococcus faecium
Conditions: 5L at 2× MIC, 30 min vs control, n = 3
Procedure: For the metabolomics sample preparation, we used exponential cultures of E. faecium strain C68 grown in BHI media adjusted to OD600 = 0.5. We treated 10 mL of this bacterial culture with 2× MIC of peptide 5L or water (for bacterial control) for 30 min at 37 °C (n = 3, technical replicates). After that, we washed the bacteria 3× times with PBS and stored the pellet at −20 °C. At a later stage, to each cell pellet, we added 0.2 mL of 2-propanol: 100 mM of NH4HCO3, pH 7.4 (1:1 v/v), and sonicated the cells. For spiking, we added 20 µL of IS to each sample and vortexed them. Subsequently, we added 1.0 mL of methanol for deproteinization and cooled the mixture at −20 °C for 10 min. After centrifugation for 10 min at 14,000× g at 4 °C, we transferred the supernatants into glass tubes and dried them under a stream of nitrogen at 40 °C. Finally, we dissolved the residues in 100 µL of water and injected 3 µL of this solution into an LC-MS/MS 8060 system (Shimadzu Scientific Inc., Columbia, MD, USA), equipped with a DUIS source operated in both positive and negative electrospray ionization modes. For the liquid chromatographic analysis, we used the Nexera UPLC system (Shimadzu Scientific Inc., Columbia, MD, USA). We quantitated primary metabolites (~150) following an established LC-MS/MS method.

For RRWLWLRRWLWR-NH2 [Peptide 5L], the “Fold change 2-Aminobutryc acid” value was 0.480 fold, the “Fold change 4-Aminobutryc acid” value was 4.319 fold and the “Fold change Adenine” value was 0.311 fold. For the same substance, the “Fold change Adenylsuccinic acid” value was 0.226 fold, the “Fold change Alanine” value was 0.383 fold and the “Fold change Allantoin” value was 2.67 fold. For the same substance, the “Fold change Arginosuccinic acid” value was 0.204 fold, the “Fold change Aspartic acid” value was 0.197 fold and the “Fold change Carbamoyl aspertate” value was 2.212 fold. The “Fold change Citicoline” value was 0.233 fold, the “Fold change Citric acid” value was 0.244 fold and the “Fold change Cobalamine” value was 2.285 fold. For the same substance, the “Fold change Cystathionine” value was 0.369 fold, the “Fold change Cysteine” value was 0.047 fold and the “Fold change Dopa” value was 0.337 fold. The “Fold change Dopamine” value was 3.107 fold, the “Fold change Fumaric acid” value was 0.387 fold and the “Fold change Glutathione” value was 0.376 fold. The “Fold change Guanine” value was 0.130 fold, the “Fold change Guanosine” value was 0.275 fold and the “Fold change Histidine” value was 0.420 fold. For the same substance, the “Fold change Inosine” value was 0.239 fold, the “Fold change Isocitric acid” value was 0.237 fold and the “Fold change Isoleucine” value was 0.458 fold. For the same substance, the “Fold change Kynureine” value was 2.152 fold, the “Fold change Leucine” value was 0.373 fold and the “Fold change Malic acid” value was 0.392 fold. For the same substance, the “Fold change Methionine” value was 0.175 fold, the “Fold change NAD” value was 0.415 fold and the “Fold change Ornitine” value was 0.378 fold. For the same substance, the “Fold change Oxidized glutathione” value was 0.403 fold, the “Fold change Phenylalanine” value was 0.423 fold and the “Fold change Putriscine” value was 7.197 fold and 7 fold. For the same substance, the “Fold change S-Adenosylhomocysteine” value was 0.267 fold, the “Fold change Serine” value was 0.033 fold and 0.03 fold and the “Fold change Serotonin” value was 2.886 fold. The “Fold change Succinic acid” value was 0.204 fold, the “Fold change Symmetric dimethylarginine” value was 2.347 fold and the “Fold change Threonine” value was 0.384 fold. For the same substance, the “Fold change Thymidine” value was 0.320 fold, the “Fold change Tryptophan” value was 0.178 fold and the “Fold change Uridine” value was 0.228 fold. For the same substance, the “Fold change Valine” value was 0.433 fold and the “Fold change Xanthosine” value was 0.315 fold.
